Each block holds one substance with its values, some of them ahead of it. Where no end group is shown, it is not given here. [ ]: non-standard residue; d: D form. The star is where a group is joined. C13 = acyl group coded C13, not further defined; C15 = acyl group coded C15, not further defined; C17 = acyl group coded C17, not further defined; Palmitoyl = CCCCCCCCCCCCCCCC(=O)*; pS = N[C@@H](COP(=O)(O)O)C(=O)O; K(dye2) = not defined here; OOO = not defined here
What was measured:
protein kinase A = biological target: T1, protein kinase A (Bos taurus, UniProt P00517); test: Detection of protein kinase activity, fluorescence increase (Examples 4B, 5B, 6B); format: biochemical; details: for time to maximum fluorescence: after addition of ATP (compounds 7, 8) or enzyme (compound 9); for fold increase in fluorescence: maximum vs starting fluorescence; for maximum fluorescence after start of the kinase reaction / fluorescence before start of the kinase reaction: substrate 1 μM; for maximum fluorescence after start of the kinase reaction: ATP 0.5 mM, protein kinase A 35 or 7 units; for fluorescence before start of the kinase reaction: Tris pH 8.1 20 mM, MgCl2 1 mM, 100 μL
T1 construct: purchased Promega (Madison, Wis.)
Method: Fluorescence data were collected on a Perkin-Elmer LS-50B luminescence spectrometer. […] ATP was added to a final concentration of 0.5 mM and the fluorescence monitored, reaching a maximum of 180 fluorescence units after 6 minutes, or a 5-fold increase.
Fluorescence data were collected on a Perkin-Elmer LS-50B luminescence spectrometer. […] ATP was added to a final concentration of 0.5 mM and the fluorescence monitored, reaching a maximum of 493 fluorescence units after 5 minutes, or a 3.5-fold increase.
Fluorescence data were collected on a Perkin-Elmer LS-50B luminescence spectrometer. […] Protein kinase A (7 Units) was added and the fluorescence monitored, reaching a maximum of 420 fluorescence units after 3 minutes, or an 8-fold increase.

PKC = test: Phosphorylation assay of linker substrates (Table 3), PKC; format: biochemical; details: substrate conc 4 or 6 uM (column Conc)
Method: Protein kinase C reaction mixture aliquots (9 μL each) containing 2 μL 5× buffer (composed of 100 mM Tris, pH 8.1+25 mM MgCl2, and 0.5% v/v β-mercaptoethanol) 1 μL Upstate Lipid Activator, 0.05 μL Promega Protein Kinase C, 5.55 μL deionized water, and 0.4 μL substrate were added to wells of the 384 well plate. The reactions were initiated by the addition of 1 μL of Sigma-Aldrich ATP into each well.

PKA = biological target: T2, PKA (Bos taurus, UniProt P00517); test: Phosphorylation assay of linker substrates (Table 3), PKA; format: biochemical; details: substrate conc 8 uM
T2 construct: purchased Promega (Madison, Wis.)

Akt = Akt (Homo sapiens, UniProt P31749); test: Phosphorylation assay of linker substrates (Table 3), Akt; format: biochemical; details: substrate conc 8 uM
Akt, sequence (P31749 whole entry): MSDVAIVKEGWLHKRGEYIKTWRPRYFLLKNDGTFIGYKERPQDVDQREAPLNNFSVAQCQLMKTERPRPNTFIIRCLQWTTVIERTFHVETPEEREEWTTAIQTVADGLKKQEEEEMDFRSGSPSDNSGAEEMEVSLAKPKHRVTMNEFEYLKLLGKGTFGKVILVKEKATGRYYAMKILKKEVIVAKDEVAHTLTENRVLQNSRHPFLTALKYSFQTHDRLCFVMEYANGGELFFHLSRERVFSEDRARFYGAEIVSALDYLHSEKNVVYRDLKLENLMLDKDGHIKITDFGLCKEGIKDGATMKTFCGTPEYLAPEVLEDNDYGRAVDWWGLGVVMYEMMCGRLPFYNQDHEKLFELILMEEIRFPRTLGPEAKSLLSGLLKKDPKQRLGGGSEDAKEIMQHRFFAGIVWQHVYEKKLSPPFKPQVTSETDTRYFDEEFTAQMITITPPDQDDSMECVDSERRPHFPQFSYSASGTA

Src, lyn, fyn = test: Phosphorylation assay of linker substrates (Table 3), Src, lyn, fyn; format: biochemical; details: substrate conc 8 uM
MAPKAP2 = MAPKAP2 (Homo sapiens, UniProt P49137); test: Phosphorylation assay of linker substrates (Table 3), MAPKAP2; format: biochemical; details: substrate conc 8 uM
MAPKAP2, sequence (P49137 whole entry): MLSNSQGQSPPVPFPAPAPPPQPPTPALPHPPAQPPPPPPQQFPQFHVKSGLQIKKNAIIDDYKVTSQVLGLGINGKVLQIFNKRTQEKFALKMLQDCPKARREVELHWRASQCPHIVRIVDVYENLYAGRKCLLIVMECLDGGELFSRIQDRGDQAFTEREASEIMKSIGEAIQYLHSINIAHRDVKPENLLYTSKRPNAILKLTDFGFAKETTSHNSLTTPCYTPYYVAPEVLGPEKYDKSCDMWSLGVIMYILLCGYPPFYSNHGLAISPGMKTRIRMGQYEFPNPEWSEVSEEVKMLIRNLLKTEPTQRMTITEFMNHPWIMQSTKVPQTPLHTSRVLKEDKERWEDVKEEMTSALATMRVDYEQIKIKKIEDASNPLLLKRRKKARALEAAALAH

MAPK = test: Phosphorylation assay of linker substrates (Table 3), MAPK; format: biochemical; details: substrate conc 16 uM
[1] = biological target: T3, pp60^c-src-related protein tyrosine kinase (Homo sapiens, UniProt P12931); test: Detection of pp60c-src-related protein tyrosine kinase (Example 10B); format: biochemical; details: substrate 2.5 μM, 5 μL reaction volume, ATP 50 μM
T3 construct: purchased Upstate, Inc. (Lake Placid, N.Y.) 14-326
Method: Example 10 describes an assay for pp60^c-src-related protein tyrosine kinase. […] Enzyme reactions were performed in triplicate for a single substrate concentration, and two no-enzyme controls were also performed.
Five wells of a Corning 384-well plate, black with a non-binding surface and low volume wells (cat. No. 3676) (Corning, Inc., Acton, Mass.) were used. Each well contained 5 μL of a solution containing compound 9 (2.5 μM), MgCl2 (1 mM), Tris buffer, pH 8.1 (20 mM) and src, active (1 unit, cat. No. 14-326). The kinase reaction was initiated in three of the wells by the addition of 1.25 μL of ATP (200 μM) to a final concentration of 50 μM.

[2] = biological target: E. coli alkaline phosphatase (Escherichia coli, UniProt P00634); test: Detection of phosphatase activity (Example 2B); format: biochemical; details: substrate 20 μM, Tris HCl pH 9, MgCl2 1 mM, 0.5 units enzyme
E. coli alkaline phosphatase, sequence (P00634 22-471): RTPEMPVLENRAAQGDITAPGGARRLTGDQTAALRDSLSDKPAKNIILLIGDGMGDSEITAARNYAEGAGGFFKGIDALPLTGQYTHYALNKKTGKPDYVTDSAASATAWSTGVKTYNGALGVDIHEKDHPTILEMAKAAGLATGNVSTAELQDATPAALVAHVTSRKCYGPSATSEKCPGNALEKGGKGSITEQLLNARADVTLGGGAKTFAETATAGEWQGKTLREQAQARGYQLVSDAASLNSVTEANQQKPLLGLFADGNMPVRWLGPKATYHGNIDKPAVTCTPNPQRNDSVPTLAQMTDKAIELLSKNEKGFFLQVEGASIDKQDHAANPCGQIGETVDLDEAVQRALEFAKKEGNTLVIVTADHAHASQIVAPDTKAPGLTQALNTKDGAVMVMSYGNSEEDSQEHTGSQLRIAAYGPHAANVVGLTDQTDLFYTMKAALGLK
Method: Phosphatase reactions were performed in a 100 μL reaction mixture containing compound 2 (20 μM), Tris HCl buffer (50 mM) at pH 9, and MgCl2 (1 mM). Reactions were initiated by adding 0.5 units of E. coli alkaline phosphatase in 1 to 5 μL. The fluorescence was monitored on a Perkin-Elmer LS-50B luminescence spectrometer with excitation at 480 nm and emission at 525 and slit widths at 5 nm.

[3] = system: T4, compound 1, palmitoyl-FAM-S(OPO3^2-)LRRRRFSK(Ac)G-amide
T4 sequence: SLRRRRFSKG

[4] = system: CCCCCCCCCCCCCCCC(=O)NCc1ccc(C(=O)NCc2c(O)ccc3c2Oc2cc(O)ccc2C32OC(=O)c3cc(C(=O)N[C@@H](COP(=O)(O)O)C(=O)N[C@@H](CC(C)C)C(=O)N[C@@H](CCCNC(=N)N)C(=O)N[C@@H](CCCNC(=N)N)C(=O)N[C@@H](CCCNC(=N)N)C(=O)N[C@@H](CCCNC(=N)N)C(=O)N[C@@H](Cc4ccccc4)C(=O)N[C@@H](CO)C(=O)N[C@@H](CCCCNC(C)=O)C(=O)NCC(N)=O)ccc32)cc1; test: Protein kinase A detection, double reciprocal plot of initial velocities (Example 1B); format: biochemical; details: other: substrate 0.15, 0.3, 0.6 μM, Tris pH 8.5, Mg-ATP 1 mM, cAMP 1 μM, catalytic subunit 2 units
Method: (1 μM), and different concentrations of compound 1 (0.15 μM, 0.3 μM, and 0.6 μM), to which the catalytic subunit of protein kinase A (2 units) was then added. Fluorescence was monitored on a Perkin-Elmer LS-50B luminescence spectrometer with 500 nm excitation and emission at 530 nm, and slit width at 5 nm.

Substance: (5-carboxy-2,7-dipyridyl-sulfofluorescein)-K-(N-perfluoro-octanoyl-proline)-LRRASLG-amide [Compound 8]
- time to maximum fluorescence (protein kinase A): 5 min
- fold increase in fluorescence (protein kinase A): 3.5 fold
- maximum fluorescence after start of the kinase reaction (protein kinase A): 493 fluorescence units
- fluorescence before start of the kinase reaction (protein kinase A): 140 fluorescence units

Substance: (N-palmitoyl)-Lys(N-5-carboxy-2,′7′-dipyridyl-sulfofluorescein)-OOO-RREGSFR-amide (RREGSFR-NH2; not fully specified (N-terminus); printed as C16-OOOK(dye2)-RREGSFR-NH2) [Compound 10]
- Fold increase (PKC): 4.5×
- RFUs at 10 uL (final) (PKC): 3000 RFUs
- RFUs at 10 uL (initial) (PKC): 650 RFUs

Substance: C13-K(dye2)-LRRASLG-NH2 ({C13-K(dye2)}-LRRASLG-NH2; reading uncertain; also: printed as C13-K(dye2)-LRRASLG-NH2) [PKA substrate; dye2 = 5-carboxy-2′,7′-dipyridyl-sulfonefluorescein]
- Fold increase (PKA): 5×
- RFUs at 10 uL (final) (PKA): 5000 RFUs
- RFUs at 10 uL (initial) (PKA): 1000 RFUs

- Fold increase (PKA): 5×
- RFUs at 10 uL (final) (PKA): 5000 RFUs
- RFUs at 10 uL (initial) (PKA): 1000 RFUs
Substance: C13-OOOK(dye2)-LRRASLG-NH2 (not fully specified (N-terminus); printed as C13-OOOK(dye2)-LRRASLG-NH2) [PKA substrate; O = 2-aminoethoxy-2-ethoxyacetyl linker]

- Fold increase (Akt): 4×
- RFUs at 10 uL (final) (Akt): 7500 RFUs
- RFUs at 10 uL (initial) (Akt): 1500 RFUs
Substance: C15-OOOK(dye2)RPRTSSF-NH2 ({C15-OOO-K(dye2)}-RPRTSSF-NH2; reading uncertain; also: printed as C15-OOOK(dye2)RPRTSSF-NH2) [Akt substrate]

Substance: C16-OOOK(dye2)RIGEGTYGVVRR-NH2 ({Palmitoyl-OOO-K(dye2)}-RIGEGTYGVVRR-NH2; reading uncertain; also: printed as C16-OOOK(dye2)RIGEGTYGVVRR-NH2) [Src, lyn, fyn substrate]
- Fold increase (Src, lyn, fyn): 6.5×
- RFUs at 10 uL (final) (Src, lyn, fyn): 6500 RFUs
- RFUs at 10 uL (initial) (Src, lyn, fyn): 1000 RFUs

- Fold increase (MAPKAP2): 4×
- RFUs at 10 uL (final) (MAPKAP2): 3200 RFUs
- RFUs at 10 uL (initial) (MAPKAP2): 800 RFUs
Substance: C16-OOOK(dye2)RLNRTLSV-NH2 ({Palmitoyl-OOO-K(dye2)}-RLNRTLSV-NH2; reading uncertain; also: printed as C16-OOOK(dye2)RLNRTLSV-NH2) [MAPKAP2 substrate]

Substance: C17-OOOK(dye2)PRTPGGR-NH2 ({C17-OOO-K(dye2)}-PRTPGGR-NH2; reading uncertain; also: printed as C17-OOOK(dye2)PRTPGGR-NH2) [MAPK substrate]
- Fold increase (MAPK): 5×
- RFUs at 10 uL (final) (MAPK): 5700 RFUs
- RFUs at 10 uL (initial) (MAPK): 1100 RFUs

Substance: C17-OOOK(tet)-RQGSFRA-NH2 ({C17-OOO-K(TET)}-RQGSFRA-NH2; reading uncertain; also: printed as C17-OOOK(tet)-RQGSFRA-NH2) [PKC substrate; tet = 2′,7′,4,7-tetachloro-5-carboxy fluorescein]
- Fold increase (PKC): 7×
- RFUs at 10 uL (final) (PKC): 4900 RFUs
- RFUs at 10 uL (initial) (PKC): 700 RFUs

- time to maximum fluorescence (protein kinase A): 6 min
- fold increase in fluorescence (protein kinase A): 5 fold
- maximum fluorescence after start of the kinase reaction (protein kinase A): 180 fluorescence units
- fluorescence before start of the kinase reaction (protein kinase A): 35 fluorescence units
Substance: N-(1H, 1H,2H,2H-Perfluorodecyl-1-thiol-2-acetyl)-K-(5-carboxysulfofluorescein) LRRASL-G-amide [Compound 7]

- time to maximum fluorescence (protein kinase A): 3 min
- fold increase in fluorescence (protein kinase A): 8 fold
- maximum fluorescence after start of the kinase reaction (protein kinase A): 420 fluorescence units
- fluorescence before start of the kinase reaction (protein kinase A): 50 fluorescence units
Substance: N-AcetylRGRPRTSSFAEG-OOOK(N-5-Carboxysulfo-fluroescein)K(N-Octadecanoyl)-amide [Compound 9]

Substance: N-palmitoyl-Lys(ε-N-5-carboxy-sulfonefluorescein)KVEKIGEGTYGVVKK-amide ({Palmitoyl-K(5-carboxy-sulfonefluorescein)}-KVEKIGEGTYGVVKK-NH2) [Compound 13]
- fluorescent signal on reaction with kinase [1]: a strong fluorescent signal with high signal-to-noise was observed

Substance: palmitoyl-LRRRRFS(OPO3^2−)K(5-FAM)G-amide (Palmitoyl-LRRRRF[pS]-{K(5-FAM)-Gly-NH2}) [Compound 2]
- change in fluorescence over time on reaction with phosphatase [2]: immediate and significant increase in fluorescence over time

Substance: protein kinase A
- Km (double reciprocal plot of initial velocities, fluorescence kinase assay) [3]: a Km value of 0.3 µM

Substance: protein kinase A (Bos taurus)
- Km [4]: 0.3 µM
